Reference: the NIST ThermoML archive (doi:10.1021/je100353j)

Assay: xn = mol fraction of the nth substance listed
Conditions: Liquid

COC(=O)OC [dimethyl carbonate] + C1CCCCC1
mass density [kg/m3]
Conditions	x1 = 0.1	x1 = 0.2	x1 = 0.3	x1 = 0.4	x1 = 0.5	x1 = 0.6	x1 = 0.7	x1 = 0.8	x1 = 0.9	x1 = 1
293.15 K, 100 kPa	797.9	818.3	842.3	866	893.7	923.6	957.5	991	1030.4	1069.8
293.15 K, 5000 kPa	802.2	822.7	846.9	870.7	898.5	928.4	962.3	995.8	1035.1	1074.4
293.15 K, 10000 kPa	806.2	827	851.2	875.3	903.1	933	966.9	1000.3	1039.5	1078.6
293.15 K, 20000 kPa	813.9	835	859.6	883.9	911.8	941.8	975.7	1009	1048	1086.9
293.15 K, 30000 kPa	821.3	842.7	867.5	892	920	950	983.8	1017.1	1055.8	1094.5
293.15 K, 40000 kPa	828.5	850.2	875.2	899.8	928	958	991.8	1025	1063.5	1101.9
298.15 K, 100 kPa	792.3	812.5	836.3	860	887.4	917	950.8	984.2	1023.2	1063.2
298.15 K, 5000 kPa	796.9	817.3	841.3	865.1	892.6	922.2	956	989.4	1028.2	1068
298.15 K, 10000 kPa	801.2	821.8	846	870	897.5	927.1	960.8	994.2	1032.8	1072.4
298.15 K, 20000 kPa	809.2	830.2	854.6	878.8	906.5	936.1	969.8	1003.1	1041.5	1080.8
298.15 K, 30000 kPa	816.5	837.8	862.5	887	914.8	944.5	978.2	1011.4	1049.7	1088.7
298.15 K, 40000 kPa	823.2	844.8	869.8	894.5	922.5	952.3	986.1	1019.3	1057.4	1096.2
303.15 K, 100 kPa	786.9	806.9	830.4	854.1	881.2	910.1	944.1	977.4	1015.8	1056.5
303.15 K, 5000 kPa	791.4	811.7	835.4	859.2	886.4	915.4	949.3	982.6	1020.9	1061.3
303.15 K, 10000 kPa	796	816.5	840.4	864.4	891.6	920.6	954.5	987.7	1025.8	1065
303.15 K, 20000 kPa	804.5	825.3	849.5	873.8	901.2	930.3	964.1	997.1	1035	1074.7
303.15 K, 30000 kPa	812.1	833.4	857.9	882.3	909.9	939.1	972.8	1005.8	1043.6	1082.9
303.15 K, 40000 kPa	819	840.7	865.4	890.1	917.8	947.2	980.9	1013.8	1051.4	1090.4
308.15 K, 100 kPa	781.2	801.4	824.4	847.9	874.8	903.4	936.9	969.7	1008.6	1049.8
308.15 K, 5000 kPa	786.1	806.5	829.7	853.4	880.3	908.9	942.3	975.1	1013.7	1054.6
308.15 K, 10000 kPa	790.8	811.4	834.8	858.6	885.6	914.2	947.7	980.4	1018.8	1059.4
308.15 K, 20000 kPa	799.5	820.5	844.2	868.3	895.5	924.2	957.6	990.2	1028.4	1068.5
308.15 K, 30000 kPa	807.4	828.7	852.8	877.1	904.4	933.3	966.7	999.3	1037.3	1077
308.15 K, 40000 kPa	814.6	836.3	860.6	885.2	912.7	941.7	975	1007.6	1045.4	1084.8
313.15 K, 100 kPa	775.6	795.8	818.5	841.9	868.6	896.7	929.7	962.3	1001.1	1043
313.15 K, 5000 kPa	780.8	801.3	824.1	847.7	874.4	902.6	935.5	968	1006.6	1048.1
313.15 K, 10000 kPa	785.6	806.2	829.3	853	879.8	908.1	941	973.5	1011.9	1053
313.15 K, 20000 kPa	794.8	815.8	839.2	863.2	890.2	918.5	951.4	983.8	1021.8	1062.3
313.15 K, 30000 kPa	802.9	824.2	848	872.2	899.4	927.9	960.8	993.1	1030.9	1071
313.15 K, 40000 kPa	810.5	832.1	856.2	880.7	908	936.7	969.5	1001.9	1039.4	1079
